Laboratory results taken from US20040006103A1, “Use of chloroquine, hydroxychloroquine and 4 amino-quinolinic derivatives to obtain a drug for the anti retroviral therapy, active towards HIV sensitive strains and towards HIV strains which are resistant to both nucleosidic and non-nucleosidic reverse transcriptase inhibitors and to proteases …” (VALPHARMA S.A., priority 2002, published 2004).
Read-outs that look alike come from different tables or passages of the source.

Assays:
[1] = tested on: HIV clinical isolated, characterised by mutations in the RT gene inducing geno-phenotypic resistance to AZT; test: p24 production susceptibility test (ACTG protocol), Table 1; format: cell-based, HIV-1; settings: for EC50: Human immunodeficiency virus 1, PBMC; for S.I. HCQ: I.C.50/E.C.50; for Fen. HCQ (fold): ratio to HIV-IIIB
Excerpt: (§1) For the phenotype of the nucleosidic, non-nucleosidic and proteases inhibitors was utilised a method which consider the use of human PBMC and the protocol standardised by the AIDS Clinical Trials Group, after verifying the genotype by sequence analysis.
(§2) In order to assay in vitro the susceptibility to chloroquine and hydroxychloroquine of the viral strains, it was used the protocol of the ACTG which is characterised by the measure, of the production of antigen p24 in strongly infected cells.
(§3) The susceptibility of the viral strains to chemotherapics was determined in cell cultures, prepared in 96 wells microplates, using, for the infection, 0.1 MOI.
(§4) The supernatant of the infected cultures (either in absence or in presence of different concentrations of chemotherapic) were tested for the production of p24 after 7 days, using an ELISA test which is commercially available.
(§5) The concentrations of chloroquine and hydroxychloroquine tested ranged from 0.5 to 15 uM. At the same time non-infected cells were incubated with concentrations of chloroquine and hydroxychloroquine ranging from 0 to 50 uM to evaluate the toxicity of the compound.
(§6) After 4 day from the infection, half the cellular medium was replaced with a medium containing the corresponding dilution of chloroquine and hydroxychloroquine. The percentage of inhibition of the HIV replication, induced by chloroquine and hydroxychloroquine, was determined, after 7 day from the infection, comparing the levels of p24 of this cultures and that of the control, infected and not treated with chloroquine and hydroxychloroquine.
(§7) Therefore, the E.C.50 of chloroquine and hydroxychloroquine expresses the concentration of chemotherapic that inhibits the 50% of production of p24 and the values were calculated using linear and non linear regression analysis (the significativity for the non linear regression was R^2>0.95).
(§8) In the same experimental conditions and in the same day, but with similar concentrations of chloroquine and hydroxychloroquine, it was evaluated the vitality of the infect cell cultures, and this was expressed as I.C.50.
(§9) I.C.50 (Inhibitory Concentration) indicates the concentration of the chemotherapic agent inhibiting the vitality of the cell cultures at a rate of 50%, when there is not infection.

[2] = tested on: HIV-1 clinical isolated, characterised by mutations on the protease gene inducing geno-phenotypic resistance to NFV; test: p24 production susceptibility test, Table 10, H-9 cells; format: cell-based; settings: for S.I. HCQ / Fen. HCQ (fold): H-9; for S.I. HCQ: I.C.50/E.C.50; for Fen. HCQ (fold): ratio to HIV-IIIB; for EC50: Human immunodeficiency virus 1, H9, H-9, read-out: E.C.50 HCQ
Excerpt: as §1, §2, §3, §4, §5, §6, §7, §8, §9

[3] = tested on: HIV-1 clinical isolated, characterised by mutations in the protease gene inducing geno-phenotypic resistance to SQV; test: p24 production susceptibility test (ACTG protocol), Table 8; format: cell-based; settings: for EC50: Human immunodeficiency virus 1, PBMC, read-out: E.C.50 HCQ; for S.I. HCQ / Fen. HCQ (fold): PBMC; for S.I. HCQ: I.C.50/E.C.50; for Fen. HCQ (fold): ratio to HIV-IIIB
Excerpt: as §1, §2, §3, §4, §5, §6, §7, §8, §9

[4] = tested on: HIV-1 strains geno-phenotypically resistant to EFV; test: p24 production susceptibility test, Table 7, MT-2 cells; format: cell-based; settings: for EC50: Human immunodeficiency virus 1, MT2, MT-2, read-out: E.C.50 HCQ; for S.I. HCQ / Fen. HCQ (fold): MT-2; for S.I. HCQ: I.C.50/E.C.50; for Fen. HCQ (fold): ratio to HIV-IIIB
Excerpt: as §1, §2, §3, §4, §5, §6, §7, §8, §9

[5] = tested on: HIV-1 strains cultivated in PBMC and isolated from patient naive to the treatment; test: p24 production susceptibility test (ACTG protocol), Table 11; format: cell-based; settings: for EC50: Human immunodeficiency virus 1, PBMC; for S.I. HCQ: I.C.50/E.C.50
Description: as §2, §3, §4, §5, §6, §7, §8, §9

[6] = tested on: viruses resistant to both reverse transcriptase and protease inhibitors; test: p24 production susceptibility test, summary for resistant viruses; format: cell-based, HIV-1; settings: Human immunodeficiency virus 1, range
Description: as §2, §3
The supernatant of the infected cultures (either in absence or in presence of different concentrations of chemotherapic) were tested for the production of p24 after 7 days, using an ELISA test which is commercially available. […]
as §6, §7

[7] = tested on: HIV-1 clinical isolated, characterised by mutations in the protease gene inducing geno-phenotypic resistance to IDV; test: p24 production susceptibility test (ACTG protocol), Table 9; format: cell-based; settings: for EC50: Human immunodeficiency virus 1, PBMC; for S.I. HCQ: I.C.50/E.C.50; for Fen. HCQ (fold): ratio to HIV-IIIB
Excerpt: as §1, §2, §3, §4, §5, §6, §7, §8, §9

[8] = PBMC, Gen. D67N K70R T215F K219Q
[9] = PBMC, Gen. D 67 Ns K 70N T215F K219Q
[10] = PBMC, Gen. M41I M184V L210W R221K T215Y
[11] = PBMC, Gen. M41L D67N K70RM 184V T215F
[12] = PBMC, Gen. M41LD 76N K70R T215Y
[13] = PBMC, Gen. K20R E35D M36I I54V V82T

Compound: CCN(CCO)CCCC(C)Nc1ccnc2cc(Cl)ccc12 (stereo not drawn) [HCQ, hydroxychloroquine]
- EC50 ([1]; PBMC, Gen. D67N K70R T215F K219Q, read-out: E:C.50 HCQ): 2 µM
- EC50 ([1]; PBMC, Gen. D 67 Ns K 70N T215F K219Q, read-out: E:C.50 HCQ): 2.5 µM
- EC50 ([1]; PBMC, Gen. K70R T215F K219Q, read-out: E:C.50 HCQ): 2 µM
- EC50 ([1]; PBMC, Gen. M41I M184V L210W R221K T215Y, read-out: E:C.50 HCQ): 1 µM
- EC50 ([1]; PBMC, Gen. M41I T215Y, read-out: E:C.50 HCQ): 2.5 µM
- EC50 ([1]; PBMC, Gen. M41L D67N K70RM 184V T215F, read-out: E:C.50 HCQ): 2.5 µM
- EC50 ([1]; read-out: E:C.50 HCQ (uM), PBMC, Gen. M41LD 76N K70R T215Y): 2.8 µM
- S.I. HCQ [1, 8]: 4
- Fen. HCQ (fold) [1, 8]: 1.1X fold
- S.I. HCQ [1, 9]: 3.6
- Fen. HCQ (fold) [1, 9]: 1.6X fold
- S.I. HCQ ([1]; PBMC, Gen. K70R T215F K219Q): 5
- Fen. HCQ (fold) ([1]; PBMC, Gen. K70R T215F K219Q): 1.1X fold
- S.I. HCQ [1, 10]: 7
- Fen. HCQ (fold) [1, 10]: 0.5X fold
- S.I. HCQ ([1]; PBMC, Gen. M41I T215Y): 4.5
- Fen. HCQ (fold) ([1]; PBMC, Gen. M41I T215Y): 1.3X fold
- S.I. HCQ [1, 11]: 3.6
- Fen. HCQ (fold) [1, 11]: 1.3X fold
- S.I. HCQ [1, 12]: 3.4
- Fen. HCQ (fold) [1, 12]: 1.5X fold
- S.I. HCQ ([2]; Gen. D30N): 4.4
- Fen. HCQ (fold) ([2]; Gen. D30N): 1.2X fold
- S.I. HCQ ([2]; Gen. V82A): 5.5
- Fen. HCQ (fold) ([2]; Gen. V82A): 1.3X fold
- EC50 ([2]; Gen. D30N): 2.2 µM
- EC50 ([2]; Gen. V82A): 2.5 µM
- EC50 ([3]; Gen. G48V I84V A74V L90M): 1.5 µM
- EC50 ([3]; Gen. G48V V82A): 3 µM
- EC50 ([3]; Gen. I84V L90M): 2.8 µM
- EC50 ([3]; Gen. M46I G48V L63P L90M): 1.8 µM
- EC50 ([3]; Gen. V82A L90M): 1.8 µM
- S.I. HCQ ([3]; Gen. G48V I84V A74V L90M): 4
- Fen. HCQ (fold) ([3]; Gen. G48V I84V A74V L90M): 0.8X fold
- S.I. HCQ ([3]; Gen. G48V V82A): 3
- Fen. HCQ (fold) ([3]; Gen. G48V V82A): 1.6X fold
- S.I. HCQ ([3]; Gen. I84V L90M): 3
- Fen. HCQ (fold) ([3]; Gen. I84V L90M): 1.5X fold
- S.I. HCQ ([3]; Gen. M46I G48V L63P L90M): 6
- Fen. HCQ (fold) ([3]; Gen. M46I G48V L63P L90M): 1X fold
- S.I. HCQ ([3]; Gen. V82A L90M): 5.5
- Fen. HCQ (fold) ([3]; Gen. V82A L90M): 1X fold
- EC50 ([4]; Gen. K101D K103N): 2.5 µM
- EC50 ([4]; Gen. K103N V108D): 2.8 µM
- EC50 ([4]; Gen. K103N Y181C): 2.5 µM
- EC50 ([4]; Gen. K103N): 2.8 µM
- EC50 ([4]; Gen. L100I K103N): 3.2 µM
- EC50 ([4]; Gen. Y181C): 1.5 µM
- S.I. HCQ ([4]; Gen. K101D K103N): 8.8
- Fen. HCQ (fold) ([4]; Gen. K101D K103N): 1.6X fold
- S.I. HCQ ([4]; Gen. K103N V108D): 7.8
- Fen. HCQ (fold) ([4]; Gen. K103N V108D): 1.8X fold
- S.I. HCQ ([4]; Gen. K103N Y181C): 8.5
- Fen. HCQ (fold) ([4]; Gen. K103N Y181C): 1.6X fold
- S.I. HCQ ([4]; Gen. K103N): 8.7
- Fen. HCQ (fold) ([4]; Gen. K103N): 1.8X fold
- S.I. HCQ ([4]; Gen. L100I K103N): 6
- Fen. HCQ (fold) ([4]; Gen. L100I K103N): 2.1X fold
- S.I. HCQ ([4]; Gen. Y181C): 8.7
- Fen. HCQ (fold) ([4]; Gen. Y181C): 1X fold
- EC50 ([5]; HIV-1 virus sensitive to the anti-retroviral treatment, range over each experiment, read-out: E.C.50): 1.5 to 3.5 µM
- EC50 ([5]; PBMC, Virus N°1, read-out: E.C.50 HCQ): 2.2 µM
- EC50 ([5]; PBMC, Virus N°2, read-out: E.C.50 HCQ): 1.8 µM
- EC50 ([5]; PBMC, Virus N°3, read-out: E.C.50 HCQ): 1.5 µM
- EC50 ([5]; PBMC, Virus N°4, read-out: E.C.50 HCQ): 2.2 µM
- EC50 ([5]; PBMC, Virus N°5, read-out: E.C.50 HCQ): 1.8 µM
- S.I. HCQ ([5]; PBMC, Virus N°1): 4.5
- S.I. HCQ ([5]; PBMC, Virus N°2): 5
- S.I. HCQ ([5]; PBMC, Virus N°3): 6
- S.I. HCQ ([5]; PBMC, Virus N°4): 4
- S.I. HCQ ([5]; PBMC, Virus N°5): 4.5
- EC50 [6]: 1.5 to 3.5 µM
- EC50 ([7]; PBMC, Gen. G48V V82A, read-out: E.C.50 HCQ): 2.8 µM
- EC50 ([7]; PBMC, Gen. I84V L90M, read-out: E.C.50 HCQ): 1.8 µM
- EC50 ([7]; PBMC, Gen. K20R E35D M36I I54V V82T, read-out: E.C.50 HCQ): 2.2 µM
- EC50 ([7]; PBMC, Gen. V82F L90M, read-out: E.C.50 HCQ): 3.3 µM
- EC50 ([7]; read-out: E.C.50 HCQ (uM), PBMC, Gen. L10R M46I L63P V82T): 1.8 µM
- S.I. HCQ ([7]; PBMC, Gen. G48V V82A): 3
- Fen. HCQ (fold) ([7]; PBMC, Gen. G48V V82A): 1.5X fold
- S.I. HCQ ([7]; PBMC, Gen. I84V L90M): 5.5
- Fen. HCQ (fold) ([7]; PBMC, Gen. I84V L90M): 1X fold
- S.I. HCQ [7, 13]: 4.5
- Fen. HCQ (fold) [7, 13]: 1.2X fold
- S.I. HCQ ([7]; PBMC, Gen. L10R M46I L63P V82T): 5
- Fen. HCQ (fold) ([7]; PBMC, Gen. L10R M46I L63P V82T): 0.8X fold
- S.I. HCQ ([7]; PBMC, Gen. V82F L90M): 2.5
- Fen. HCQ (fold) ([7]; PBMC, Gen. V82F L90M): 1.7X fold
